Data on 11 compounds can be found in paper PMC10023787, “Trio-pharmacophore DNA-encoded chemical library for simultaneous selection of fragments and linkers” (Nature Communications, 2023).

Like-named read-outs stand apart in the source and are kept apart here.

Assay [1] has as its target T1, MMP-9 (Homo sapiens, UniProt P14780).
T1 construct: purchased Sino Biological 10327-HNAH
The assay can be described thus: MMP-9 inhibition assay (fluorogenic peptide substrate). In kind it is biochemical. Also on record: remaining enzyme activity (% of control): scale not given here. A digest of the protocol: (§1)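 Human proMMP-2 and proMMP-9 were activated with 1 mM APMA (37 °C, 2 h), then used at 6.5 nM (MMP-2) or 10 nM (MMP-9) in Tris/NaCl/CaCl2/Brij 35 buffer, pH 7.5. Enzyme was preincubated with compound 30 min at RT; 25 μM DNP-Pro-Leu-Gly-Met-Trp-Ser-Arg substrate was added and fluorescence (ex 280/em 360 nm) followed 30 min. IC50 from logistic fits of Vmax.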

Assay [2] has as its target T2, MMP-2 (Homo sapiens, UniProt P08253).
T2 construct: purchased Sino Biological 10082-HNAH
T2 sequence (P08253 110-660): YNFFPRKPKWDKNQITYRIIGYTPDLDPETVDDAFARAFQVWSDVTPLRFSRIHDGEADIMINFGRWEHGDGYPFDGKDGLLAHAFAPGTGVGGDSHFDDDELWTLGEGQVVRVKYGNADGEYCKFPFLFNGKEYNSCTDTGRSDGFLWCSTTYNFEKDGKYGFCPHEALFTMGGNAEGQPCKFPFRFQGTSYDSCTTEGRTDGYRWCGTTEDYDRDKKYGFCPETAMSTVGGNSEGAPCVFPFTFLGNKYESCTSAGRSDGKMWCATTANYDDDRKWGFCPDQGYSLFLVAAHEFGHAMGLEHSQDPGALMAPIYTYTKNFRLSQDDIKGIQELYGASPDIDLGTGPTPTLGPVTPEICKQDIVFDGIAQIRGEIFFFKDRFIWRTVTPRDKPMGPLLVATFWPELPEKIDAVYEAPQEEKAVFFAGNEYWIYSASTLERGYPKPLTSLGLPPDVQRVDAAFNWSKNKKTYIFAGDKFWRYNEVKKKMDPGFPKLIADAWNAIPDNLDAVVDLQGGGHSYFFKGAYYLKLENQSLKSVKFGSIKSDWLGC
The assay can be described thus: MMP-2 inhibition assay (fluorogenic peptide substrate). In kind it is biochemical. A digest of the protocol:
as §1

[3] abbreviates: mean ± SE; n.d: not detected; Fig. 5e prints no unit, µM; read-out: IC50.
[4] abbreviates: mean ± SE; n.d: not detected; Fig. 5d unit inferred, µM; read-out: IC50.
Where [5] appears, read: Figure 5d; fragment combination joined by linker; n.d: not detected; read-out: MMP9 IC50.
The mark [6] stands for this setting: Figure 5d; fragment combination joined by linker; n.d: not detected; read-out: MMP2 IC50.
[7] abbreviates: MMP-9; concentration 1219.00 µM.
[8] abbreviates: MMP-2; concentration 1219.00 µM.

T1 sequence (P14780 107-707 limits assumed): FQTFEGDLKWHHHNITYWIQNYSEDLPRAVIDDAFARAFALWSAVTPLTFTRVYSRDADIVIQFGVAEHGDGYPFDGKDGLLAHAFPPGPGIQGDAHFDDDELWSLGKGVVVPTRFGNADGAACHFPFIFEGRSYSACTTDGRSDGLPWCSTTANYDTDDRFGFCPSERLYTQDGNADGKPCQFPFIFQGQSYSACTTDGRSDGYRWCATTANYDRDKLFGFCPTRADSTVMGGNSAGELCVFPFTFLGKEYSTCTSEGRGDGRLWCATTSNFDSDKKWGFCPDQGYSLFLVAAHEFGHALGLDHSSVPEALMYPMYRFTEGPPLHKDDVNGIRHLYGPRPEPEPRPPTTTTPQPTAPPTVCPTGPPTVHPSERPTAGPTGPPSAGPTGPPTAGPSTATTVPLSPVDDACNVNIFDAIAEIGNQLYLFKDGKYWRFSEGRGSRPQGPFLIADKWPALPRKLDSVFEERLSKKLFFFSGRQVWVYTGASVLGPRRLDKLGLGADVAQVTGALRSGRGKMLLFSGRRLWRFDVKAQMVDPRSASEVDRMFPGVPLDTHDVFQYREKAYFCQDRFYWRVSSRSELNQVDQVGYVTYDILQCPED

In general, IC50 refers to the concentration needed to halve the response being measured. For the compound `O=C(Cn1cnc2c(oc3ccccc32)c1=O)NCCOCCOCCNC(=O)c1cncc(O)c1` [182+828 Linker 10], the “remaining enzyme activity (% of control)” value turned out to be 97.14 in assay [1] (MMP-9, concentration 0.06 µM); 97.22 in assay [1] (MMP-9, concentration 0.29 µM); 90.75 in assay [1] (MMP-9, concentration 1.46 µM); 93.96 in assay [1] (MMP-9, concentration 7.32 µM); 74.71 in assay [1] (MMP-9, concentration 36.60 µM); 29.12 in assay [1] (MMP-9, concentration 183.00 µM). Also, in assay [1] (MMP-9, concentration 915.00 µM), the “remaining enzyme activity (% of control)” value was 0.00. Moreover, the results for the IC50 in assay [1] (setting [3]) and in assay [2] (setting [4]) were 99.6 ± 31.7 µM and 43 ± 19.3 µM, respectively. Further, the “remaining activity (%)” value stood at 98.76 in assay [2] (MMP-2, concentration 0.0117 µM); 98.75 in assay [2] (MMP-2, concentration 0.06 µM); 92.92 in assay [2] (MMP-2, concentration 0.29 µM); 80.34 in assay [2] (MMP-2, concentration 1.46 µM); 73.36 in assay [2] (MMP-2, concentration 7.32 µM); 63.34 in assay [2] (MMP-2, concentration 36.60 µM). Also, the “remaining activity (%)” value is 14.49 in assay [2] (MMP-2, concentration 183.00 µM) and 0.00 in assay [2] (MMP-2, concentration 915.00 µM).
As for `Cc1cc(=O)[nH]c(-n2nc(C)c(CCC(=O)NCCNC(=O)CC(=O)/C=C/CCCCNC(=O)c3cncc(O)c3)c2C)n1` [693_828 12], the 50% inhibitory concentration (IC50) in assay [1] (setting [5]) came out at 14.8 µM; in assay [2] (setting [6]), 10 µM.
Take `Cn1c(O)nc2cc(C(=O)NCCCC/C=C/C(=O)CC(=O)NCC34CC5CC(CC(C5)C3)C4)cnc21` [66+826 Linker 12]: the “remaining enzyme activity (% of control)” value in assay [1] (MMP-9; concentration 0.12 µM) worked out at 93.60; in assay [1] (MMP-9; concentration 0.49 µM), 81.81; in assay [1] (MMP-9; concentration 1.95 µM), 96.97; in assay [1] (MMP-9; concentration 7.81 µM), 103.45; in assay [1] (MMP-9; concentration 31.25 µM) it was 97.31; in assay [1] (MMP-9; concentration 125.00 µM) it was 94.06. Also, in assay [1] (MMP-9; concentration 500.00 µM), the “remaining enzyme activity (% of control)” value stood at 80.41. Moreover, the “remaining activity (%)” value in assay [2] (MMP-2; concentration 0.12 µM) was determined as 102.70; in assay [2] (MMP-2; concentration 0.49 µM), 99.61; in assay [2] (MMP-2; concentration 1.95 µM) it was 102.06; in assay [2] (MMP-2; concentration 7.81 µM) it was 101.87; in assay [2] (MMP-2; concentration 31.25 µM), 95.39; in assay [2] (MMP-2; concentration 125.00 µM), 94.81. Further, the “remaining activity (%)” value in assay [2] (MMP-2; concentration 500.00 µM) turned out to be 77.92.
In the case of `O=C(CNC(=O)NC12CC3CC(CC(C3)C1)C2)NCCCCCCCCNC(=O)c1cncc(O)c1` [66+828 Linker 4], the “remaining enzyme activity (% of control)” value in assay [1] (MMP-9; concentration 0.08 µM) was found to be 92.81; in assay [1] (MMP-9; concentration 0.39 µM), 100.82; in assay [1] (MMP-9; concentration 1.95 µM), 101.95; in assay [1] (MMP-9; concentration 9.75 µM) it was 96.31; in assay [1] (MMP-9; concentration 48.76 µM) it was 80.00; in assay [1] (MMP-9; concentration 243.80 µM) it was 52.30. The “remaining enzyme activity (% of control)” value in assay [1] (setting [7]) is reported as 13.62. Moreover, the “remaining activity (%)” value in assay [2] (MMP-2; concentration 0.0156 µM) is given as 106.93; in assay [2] (MMP-2; concentration 0.08 µM), 108.75; in assay [2] (MMP-2; concentration 0.39 µM), 91.04; in assay [2] (MMP-2; concentration 1.95 µM), 95.05; in assay [2] (MMP-2; concentration 9.75 µM), 96.24; in assay [2] (MMP-2; concentration 48.76 µM) it was 69.88. For the same compound, the “remaining activity (%)” value in assay [2] (MMP-2; concentration 243.80 µM) came to 65.10; in assay [2] (setting [8]), 54.12.
Consider `Cc1cc(=O)[nH]c(-n2nc(C)c(CCC(=O)NCCOCCOCCNC(=O)c3cncc(O)c3)c2C)n1` [693+828 Linker 10], for which the “remaining enzyme activity (% of control)” value in assay [1] (MMP-9; concentration 0.08 µM) was 97.89; in assay [1] (MMP-9; concentration 0.39 µM) it was 99.26; in assay [1] (MMP-9; concentration 1.95 µM), 97.73; in assay [1] (MMP-9; concentration 9.75 µM) it was 98.89; in assay [1] (MMP-9; concentration 48.76 µM), 84.90; in assay [1] (MMP-9; concentration 243.80 µM), 42.77. In assay [1] (setting [7]), the “remaining enzyme activity (% of control)” value is 10.96. Besides, the IC50 in assay [1] (setting [3]) came out at 201 ± 21.3 µM; in assay [2] (setting [4]), 186 ± 15.7 µM. Besides, the “remaining activity (%)” value in assay [2] (MMP-2; concentration 0.0156 µM) is given as 88.17; in assay [2] (MMP-2; concentration 0.08 µM), 88.67; in assay [2] (MMP-2; concentration 0.39 µM), 96.33; in assay [2] (MMP-2; concentration 1.95 µM), 93.57; in assay [2] (MMP-2; concentration 9.75 µM), 94.74; in assay [2] (MMP-2; concentration 48.76 µM), 85.76. Further, the “remaining activity (%)” value in assay [2] (MMP-2; concentration 243.80 µM) was determined as 33.24; in assay [2] (setting [8]), 9.64.
For the compound `Cc1cc(=O)[nH]c(-n2nc(C)c(CCC(=O)NCCSCC(=O)NCCNC(=O)c3cnc4c(c3)nc(O)n4C)c2C)n1` [693_826 24], the IC50 in assay [1] (setting [5]) was 358 µM; in assay [2] (setting [6]), 417 µM.
For `Cc1cc(=O)[nH]c(-n2nc(C)c(CCC(=O)NCCCCCCCCNC(=O)c3cncc(O)c3)c2C)n1` [693_828 4] the same measures were 261 µM and 212 µM.
In the case of `O=C(/C=C/CCCCC(=O)NCc1c[nH]nn1)CC(=O)NCC12CC3CC(CC(C3)C1)C2` [66+787 Linker 12], the “remaining enzyme activity (% of control)” value in assay [1] (MMP-9; concentration 0.0553 µM) stood at 94.85; in assay [1] (MMP-9; concentration 0.28 µM), 91.07; in assay [1] (MMP-9; concentration 1.38 µM), 90.00; in assay [1] (MMP-9; concentration 6.91 µM), 80.21; in assay [1] (MMP-9; concentration 34.57 µM), 81.44; in assay [1] (MMP-9; concentration 172.86 µM), 37.12. The “remaining enzyme activity (% of control)” value in assay [1] (MMP-9; concentration 864.30 µM) is given as 14.22. Moreover, the IC50 in assay [1] (setting [3]) stood at 115 ± 78.3 µM; in assay [2] (setting [4]), 339 ± 63.3 µM. Besides, the “remaining activity (%)” value is 95.55 in assay [2] (MMP-2; concentration 0.0111 µM); 86.42 in assay [2] (MMP-2; concentration 0.0553 µM); 84.28 in assay [2] (MMP-2; concentration 0.28 µM); 96.70 in assay [2] (MMP-2; concentration 1.38 µM); 90.43 in assay [2] (MMP-2; concentration 6.91 µM); 98.71 in assay [2] (MMP-2; concentration 34.57 µM). The “remaining activity (%)” value is given as 67.90 in assay [2] (MMP-2; concentration 172.86 µM) and 16.96 in assay [2] (MMP-2; concentration 864.30 µM).
Regarding `Cn1c(O)nc2cc(C(=O)NCCOCCOCCNC(=O)Cn3cnc4c(oc5ccccc54)c3=O)cnc21` [182+826 Linker 10], the “remaining enzyme activity (% of control)” value in assay [1] (MMP-9, concentration 0.12 µM) turned out to be 94.26; in assay [1] (MMP-9, concentration 0.49 µM), 94.53; in assay [1] (MMP-9, concentration 1.95 µM) it was 79.71; in assay [1] (MMP-9, concentration 7.81 µM), 87.21; in assay [1] (MMP-9, concentration 31.25 µM), 75.62; in assay [1] (MMP-9, concentration 125.00 µM), 66.17. Besides, the “remaining enzyme activity (% of control)” value in assay [1] (MMP-9, concentration 500.00 µM) was 43.49. The IC50 in assay [1] (setting [3]) worked out at 283 ± 84.3 µM. The “remaining activity (%)” value in assay [2] (MMP-2, concentration 0.12 µM) is 104.96; in assay [2] (MMP-2, concentration 0.49 µM), 102.80; in assay [2] (MMP-2, concentration 1.95 µM), 96.45; in assay [2] (MMP-2, concentration 7.81 µM), 96.46; in assay [2] (MMP-2, concentration 31.25 µM) it was 89.20; in assay [2] (MMP-2, concentration 125.00 µM) it was 71.67. Moreover, the “remaining activity (%)” value in assay [2] (MMP-2, concentration 500.00 µM) was 58.28.
Consider `O=C(CSCCNC(=O)c1cncc(O)c1)NCCNC(=O)Cn1cnc2c(oc3ccccc32)c1=O` [182_828 24], for which the IC50 was determined as 35.3 µM in assay [1] (setting [5]) and 33.3 µM in assay [2] (setting [6]).
For `Cc1cc(=O)[nH]c(-n2nc(C)c(CCC(=O)NCCCCCCCCNC(=O)CCC(=O)NCc3c[nH]nn3)c2C)n1` [693_787 4] the same measures were 250 µM and 169 µM.
